Results from patent publication US8008355B2, “Endosomolytic poly(vinyl ether) polymers” (Roche Madison Inc., priority 2002, dated 2011).

Legend:
[1] = amines with electron withdrawing groups; cited from earlier work
[2] = Rate of cleavage of linkages; type: physicochemical

Row | Compound | pKa [1] | rate of cleavage, slower than an SMTP linkage (Compound XI) [2]
1 | CCN(CC)CCC#N [(C2H5)2N(CH2)2CN] | 7.65 | 
2 | CCN(CCC#N)CCC#N [C2H5N(CH2CH2CN)2] | 4.55 | 
3 | CC1CCC(=N)S1 (stereo not shown) [Linkage X, 5-methyl-2-iminothiolane] |  | 4 ×
4 | N#CCN [Polymer H2NCH2CN, H2NCH2CN] | 5.34 | 
